Laboratory results: ChEMBL document CHEMBL1147885, “A novel noninvasive method for assessing glutathione-conjugate efflux systems in the brain” (Bioorg Med Chem, 2007)

How the values were obtained:
Format in all cases: ADME, organism-based
[1] = tested on: Brain; assay: Metabolic stability in intravenously dosed Wistar rat brain assessed as radioactivity remained in unchanged form after 15 mins by TLC; conditions: in vivo, iv, 0.25 h
[2] = tested on: Brain; assay: Metabolic stability in intravenously dosed Wistar rat brain assessed as metabolite level after 15 mins by HPLC; conditions: in vivo, iv, 0.25 h
[3] = tested on: Brain; assay: Metabolic stability in intravenously dosed Wistar rat brain assessed as metabolite level after 60 mins by HPLC; conditions: in vivo, iv, 1 h

Measured: Stability

[14CH3]n1cnc2ncnc(Cl)c21
80%: all assays above
